Data from US20070092925A1, “Method of treating skin by delivering specific protein stabilizers/protectors to skin proteins and methods of selecting said stabilizers” (Conopco, Inc., d/b/a UNILEVER, priority 2005, published 2007).
“Also recorded” adds a separate entry of the source.

Columns and labels:
[1] = molecular target: T1, trypsin from bovine pancreas (Bos taurus, UniProt P00760); test: trypsin autolysis followed by fluorescence spectroscopy (ratio R versus time, FIG. 2); assay type: biochemical; conditions: 0.1 M TRIS buffer pH 7.5, compared with water
T1 construct: purchased Sigma; host or cells: bovine pancreas
T1 sequence (P00760 24-246): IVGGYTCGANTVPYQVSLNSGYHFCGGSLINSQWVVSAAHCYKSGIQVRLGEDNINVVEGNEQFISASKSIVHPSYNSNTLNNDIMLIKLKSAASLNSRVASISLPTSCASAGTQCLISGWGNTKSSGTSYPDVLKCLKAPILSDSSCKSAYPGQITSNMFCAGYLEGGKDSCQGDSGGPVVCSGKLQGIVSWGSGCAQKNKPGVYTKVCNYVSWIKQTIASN
Excerpt: (§1) The process of serine protease (e.g., trypsin) autolysis can be followed by using fluorescence spectroscopy. […] Consequently, the autolysis of trypsin and subsequent unfolding is accompanied by spectral changes that can be detected by obtaining fluorescence spectra at various time points after preparing a fresh solution of trypsin.
(§2) The iso-emissive points (fluorescence intensity independent of time) at 305 nm and 360 nm are typical of a situation where one fluorescent component (native protein) is the source of the other fluorescent component(s) (denatured protein and cleaved fragments). Applicants quantified the change in the trypsin spectrum by taking a ratio, R, of the area between 320 nm and 330 nm and the area between 380 nm and 400 nm: [formula]
(§3) The numerator represents the relative amount of native protein in the sample and the denominator represents relative amount of denatured protein and cleaved fragments. R therefore is a measure of how far the autolysis process has progressed.
(§4) Protocol—Fresh solutions of trypsin (2.5 mg/ml) were prepared by mixing the appropriate amount of solid trypsin from bovine pancreas (Sigma) with appropriate amounts of buffer solution (1M, pH 7.5; VWR), water, and protein stabilizing compound (pyrollidone carboxylic acid—Sigma Ultrapure; trimethylamine N-oxide—Fluka Purum; glycerin—J.T. Baker; 1-Propanaminium, 2,3-dihydroxy-N,N,N-trimethyl-, chloride—synthesized and purified in house), and/or protein destabilizing compound (urea—J.T. Baker Ultrapure Bioreagent); sodium dodecyl sulfate—ICN Ultrapure). All chemicals were used as supplied. Within minutes of dissolving the solid trypsin the solution was transferred into a quartz fluorescence cuvette and placed inside a Perkin Elmer LS 50 B fluorescence spectrometer. Fluorescence spectra were subsequently measured, either every 5 minutes or every 10 minutes. The excitation wavelength was 280 nm.
A seen in FIG. 2, applicants plotted trypsin autolysis as followed by fluorescence spectroscopy in various media with 0.1 M TRIS buffer pH 7.5. These media include: 0.5 M PCA, i.e., pyrollidone carboxylic acid (closed triangles); 1 M TMAO (closed diamonds); 1 M glycerol (closed circles); 1M 1-propanaminium, 2,3-dihydroxy-N,N,N-trimethyl-,chloride (crosses); water (closed squares); 1 M urea (open triangles); and 0.5 mM SDS, i.e., sodium dodecyl sulphate (open circles).
The ability of various compounds or combinations of compounds to increase or depress the rate of trypsin autolysis can be compared by plotting R as a function of time as is shown, for example, in FIG. 2.

[2] = molecular target: T1, trypsin from bovine pancreas; test: trypsin autolysis followed by fluorescence spectroscopy in the presence of the denaturant SDS (FIG. 3); assay type: biochemical
Excerpt: as §1, §2, §3, §4
For reference purposes, also shown are autolysis traces in the presence of 0.5 mM SDS without any protein stabilizer (open squares) and without any SDS or protein stabilizer (closed squares).

[3] = 1.0 M stabilizer plus 0.5 mM SDS

Structure (SMILES)	rate of trypsin autolysis (R as a function of time) ([1]; […] compound)	rate of trypsin autolysis in the presence of SDS [2, 3]	other results
C[N+](C)(C)CC(O)CO.[Cl-] (stereo not drawn) [1-Propanaminium, 2,3-dihydroxy-N,N,N-trimethyl-, chloride]	exceed that of both glycerol and TMAO	–	–
O=C1CC[C@@H](C(=O)O)N1 [PCA, pyrollidone carboxylic acid]	–	–	rate of trypsin autolysis (R as a function of time) ([1]; 0.5 M compound): virtual absence of autolysis; also recorded: by far the strongest ability of any of the compounds tested to stabilize trypsin; rate of trypsin autolysis in the presence of SDS ([2]; 0.5 M stabilizer plus 0.5 mM SDS): able to “protect” proteins against a denaturing force; also recorded: still slower than in the absence of both SDS and a protein stabilizer
CCCCCCCCCCCCOS(=O)(=O)[O-].[Na+] [SDS, sodium dodecyl sulfate]	–	–	rate of trypsin autolysis (R as a function of time) ([1]; 0.5 mM compound): significant increase in the rate of trypsin hydrolysis
C[N+](C)(C)[O-] [TMAO, trimethylamine N-oxide]	exceeds glycerol in its ability to stabilize trypsin against autolysis	able to “protect” proteins against a denaturing force; also recorded: still slower than in the absence of both SDS and a protein stabilizer	–
OCC(O)CO [glycerol]	significantly reduces the rate of trypsin autolysis	able to “protect” proteins against a denaturing force	–
NC(N)=O [urea]	significant increase in the rate of trypsin hydrolysis	–	–
